Starred links: 1 amine or outer side, 2 acyl side, 3 side chain; linkers in the order of their positions; H or OH if unused. Non-standard residues stand in square brackets, D forms with d. Residues, ends and D or L forms follow the SMILES beside them. *: point of attachment. X1 = C[C@H](N[*:1])C(=O)C(F)(F)C(=O)[*:2]; X2 = C[C@H](N[*:1])C(O)C(F)(F)C(=O)[*:2]; Cbz = O=C(OCc1ccccc1)*; OBn = c1ccc(CO*)cc1; Bn = c1ccc(C*)cc1; βAla = NCCC(=O)O
Tests used:
[1] = biological target: T1, Subtilisin-like protease 1 (Plasmodium falciparum) (UniProt O61142); assay: Inhibition of Plasmodium falciparum serine protease subtilisin-like protease 1 at 100 uM by fluorimetric assay
T1 sequence (whole entry): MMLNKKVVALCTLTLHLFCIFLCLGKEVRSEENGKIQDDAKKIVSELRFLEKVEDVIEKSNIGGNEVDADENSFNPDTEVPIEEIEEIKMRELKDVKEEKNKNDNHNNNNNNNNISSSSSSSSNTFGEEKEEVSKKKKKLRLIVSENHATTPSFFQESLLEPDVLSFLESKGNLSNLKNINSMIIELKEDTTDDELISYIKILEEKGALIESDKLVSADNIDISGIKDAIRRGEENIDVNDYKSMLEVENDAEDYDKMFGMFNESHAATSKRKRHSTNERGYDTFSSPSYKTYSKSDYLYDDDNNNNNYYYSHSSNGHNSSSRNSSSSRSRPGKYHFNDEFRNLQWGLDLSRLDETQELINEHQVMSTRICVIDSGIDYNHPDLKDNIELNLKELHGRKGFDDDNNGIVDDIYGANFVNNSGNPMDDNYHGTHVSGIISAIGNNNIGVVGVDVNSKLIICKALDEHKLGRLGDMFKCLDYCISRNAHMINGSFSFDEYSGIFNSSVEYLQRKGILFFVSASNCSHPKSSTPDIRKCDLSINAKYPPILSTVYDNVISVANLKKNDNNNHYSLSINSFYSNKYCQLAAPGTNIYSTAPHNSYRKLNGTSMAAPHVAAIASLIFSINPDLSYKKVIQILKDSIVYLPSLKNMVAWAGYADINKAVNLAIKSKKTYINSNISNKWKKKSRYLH

[2] = biological target: T2, Subtilisin-like protease 1 (Plasmodium falciparum, UniProt O61142); assay: Inhibition of Plasmodium falciparum serine protease subtilisin-like protease 1by fluorimetric assay
T2 sequence (O61142 whole entry): T1 sequence (whole entry)

Structure (SMILES)	inhibition [1] [%]	IC50 [2] [µM]
CC(=O)N[C@H](C(=O)N[C@@H](C)C(=O)N[C@@H](C)C(=O)C(F)(F)C(=O)NCC(=O)O)[C@@H](C)O	6	
CC[C@H](C)[C@H](NC(C)=O)C(=O)N[C@H](C(=O)N[C@@H](C)C(=O)N[C@@H](C)C(=O)C(F)(F)C(=O)NCC(=O)OCc1ccccc1)[C@@H](C)OCc1ccccc1 (Ac-IT(Bn)A[X1]G-OBn)	59	33
CC[C@H](C)[C@H](NC(=O)[C@H](CCCCNC(=O)OCc1ccccc1)NC(C)=O)C(=O)N[C@H](C(=O)N[C@@H](C)C(=O)N[C@@H](C)C(=O)C(F)(F)C(=O)NCC(=O)OCc1ccccc1)[C@@H](C)OCc1ccccc1 (Ac-K(Cbz)IT(Bn)A[X1]G-OBn)	71	5
CC[C@H](C)[C@H](NC(=O)[C@H](CCCCNC(=O)OCc1ccccc1)NC(C)=O)C(=O)N[C@H](C(=O)N[C@@H](C)C(=O)N[C@@H](C)C(=O)C(F)(F)C(=O)NCCC(=O)OCc1ccccc1)[C@@H](C)OCc1ccccc1 (Ac-K(Cbz)IT(Bn)A[X1][βAla]-OBn)	14	
CC[C@H](C)[C@H](NC(=O)[C@H](CCCCNC(=O)OCc1ccccc1)NC(C)=O)C(=O)N[C@H](C(=O)N[C@@H](C)C(=O)N[C@@H](C)C(O)C(F)(F)C(=O)NCC(=O)OCc1ccccc1)[C@@H](C)OCc1ccccc1 (some centres undefined) (Ac-K(Cbz)IT(Bn)A[X2]G-OBn)	3	
CC[C@H](C)[C@H](NC(C)=O)C(=O)N[C@H](C(=O)N[C@@H](C)C(=O)N[C@@H](C)C(=O)C(F)(F)C(=O)NCC(=O)O)[C@@H](C)O (HELM PEPTIDE1{[ac].I.T.A.[C[C@H](N[*:1])C(=O)C(F)(F)C(=O)[*:2]].G}$$$$V2.0)	99	0.6
CC[C@H](C)[C@H](NC(=O)[C@H](CCCCN)NC(C)=O)C(=O)N[C@H](C(=O)N[C@@H](C)C(=O)N[C@@H](C)C(=O)C(F)(F)C(=O)NCC(=O)O)[C@@H](C)O (HELM PEPTIDE1{[ac].K.I.T.A.[C[C@H](N[*:1])C(=O)C(F)(F)C(=O)[*:2]].G}$$$$V2.0)	100	0.6
CC[C@H](C)[C@H](NC(=O)[C@H](CCCCN)NC(C)=O)C(=O)N[C@H](C(=O)N[C@@H](C)C(=O)N[C@@H](C)C(=O)C(F)(F)C(=O)NCCC(=O)O)[C@@H](C)O (HELM PEPTIDE1{[ac].K.I.T.A.[C[C@H](N[*:1])C(=O)C(F)(F)C(=O)[*:2]].[bAla]}$$$$V2.0)	63	60
CC[C@H](C)[C@H](NC(C)=O)C(=O)N[C@H](C(=O)N[C@@H](C)C(=O)N[C@@H](C)C(O)C(F)(F)C(=O)NCC(=O)OCc1ccccc1)[C@@H](C)OCc1ccccc1 (mixture of isomers)	0	
